Test results as given in paper PMC8550792, “Evolution of kinase polypharmacology across HSP90 drug discovery” (Cell Chemical Biology, 2021).

How the values were obtained:
LTK = test system: LTK; design: method as in ChEMBL23 (accessed: 23/08/2018); conditions: average of reported values; ref ChEMBL23 (accessed: 23/08/2018); cited from earlier work
LCK = target: T1, LCK (Homo sapiens, UniProt P06239); experiment: HotSpot in vitro kinase radiometric assay; assay type: biochemical
T1 construct: purchased Reaction Biology (HotSpot contract assay)

PEAK1 = target: T2, PEAK1 (Homo sapiens, UniProt Q9H792); experiment: HotSpot in vitro kinase radiometric assay; assay type: biochemical
T2 construct: purchased Reaction Biology (HotSpot contract assay)

PASK = target: T3, PASK (Homo sapiens, UniProt Q96RG2); experiment: HotSpot in vitro kinase radiometric assay; assay type: biochemical
T3 construct: purchased Reaction Biology (HotSpot contract assay)
Outline: (§1)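 Radiometric catalytic assay: compounds incubated with kinase, substrate, cofactors and ³²P- or ³³P-γ-ATP. Reactions spotted onto filter paper that binds the labeled product, giving a direct measure of inhibition of catalytic activity without modified substrates or coupling enzymes.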

TRKA = target: T4, TRKA (Homo sapiens, UniProt P04629); experiment: HotSpot in vitro kinase radiometric assay; assay type: biochemical
T4 construct: purchased Reaction Biology (HotSpot contract assay)
Outline: as §1

PIM1 = test system: PIM1; design: method as in ChEMBL23 (accessed: 23/08/2018); conditions: average of reported values; ref ChEMBL23 (accessed: 23/08/2018); cited from earlier work
LYN B = target: T5, LYN B (Homo sapiens, UniProt P07948); experiment: HotSpot in vitro kinase radiometric assay; assay type: biochemical
T5 construct: purchased Reaction Biology (HotSpot contract assay)
Outline: as §1

c-Src = target: T6, c-Src (Homo sapiens, UniProt P12931); experiment: HotSpot in vitro kinase radiometric assay; assay type: biochemical
T6 construct: purchased Reaction Biology (HotSpot contract assay)
Outline: as §1

PDK4/PDKH4 = target: T7, PDK4/PDKH4 (Homo sapiens, UniProt Q16654); experiment: HotSpot in vitro kinase radiometric assay; assay type: biochemical
T7 construct: purchased Reaction Biology (HotSpot contract assay)
Outline: as §1

BLK = target: T8, BLK (Homo sapiens, UniProt P51451); experiment: HotSpot in vitro kinase radiometric assay; assay type: biochemical
T8 construct: purchased Reaction Biology (HotSpot contract assay)
Outline: as §1

PDK2/PDHK2 = target: T9, PDK2/PDHK2 (Homo sapiens, UniProt Q15119); experiment: HotSpot in vitro kinase radiometric assay; assay type: biochemical
T9 construct: purchased Reaction Biology (HotSpot contract assay)
Outline: as §1

MET = test system: MET; design: method as in ChEMBL23 (accessed: 23/08/2018); conditions: average of reported values; ref ChEMBL23 (accessed: 23/08/2018); cited from earlier work
YES/YES1 = target: T10, YES/YES1 (Homo sapiens, UniProt P07947); experiment: HotSpot in vitro kinase radiometric assay; assay type: biochemical
T10 construct: purchased Reaction Biology (HotSpot contract assay)

FGR = target: T11, FGR (Homo sapiens, UniProt P09769); experiment: HotSpot in vitro kinase radiometric assay; assay type: biochemical
T11 construct: purchased Reaction Biology (HotSpot contract assay)

ABL1 = ABL1 (Homo sapiens, UniProt P00519); experiment: HotSpot in vitro kinase radiometric assay; assay type: biochemical; design: purchased Reaction Biology (HotSpot contract assay)
HSP90AB1 = test system: HSP90AB1; design: method as in ChEMBL23 (accessed: 23/08/2018); conditions: average of reported values; ref ChEMBL23 (accessed: 23/08/2018); cited from earlier work
FYN = target: T12, FYN (Homo sapiens, UniProt P06241); experiment: HotSpot in vitro kinase radiometric assay; assay type: biochemical
T12 construct: purchased Reaction Biology (HotSpot contract assay)

ABL2/ARG = target: T13, ABL2/ARG (Homo sapiens, UniProt P42684); experiment: HotSpot in vitro kinase radiometric assay; assay type: biochemical
T13 construct: purchased Reaction Biology (HotSpot contract assay)

DDR1 = DDR1 (Homo sapiens, UniProt Q08345); experiment: HotSpot in vitro kinase radiometric assay; assay type: biochemical; design: purchased Reaction Biology (HotSpot contract assay)
TRKC = target: T14, TRKC (Homo sapiens, UniProt Q16288); experiment: HotSpot in vitro kinase radiometric assay; assay type: biochemical
T14 construct: purchased Reaction Biology (HotSpot contract assay)

T2 sequence (Q9H792 whole entry): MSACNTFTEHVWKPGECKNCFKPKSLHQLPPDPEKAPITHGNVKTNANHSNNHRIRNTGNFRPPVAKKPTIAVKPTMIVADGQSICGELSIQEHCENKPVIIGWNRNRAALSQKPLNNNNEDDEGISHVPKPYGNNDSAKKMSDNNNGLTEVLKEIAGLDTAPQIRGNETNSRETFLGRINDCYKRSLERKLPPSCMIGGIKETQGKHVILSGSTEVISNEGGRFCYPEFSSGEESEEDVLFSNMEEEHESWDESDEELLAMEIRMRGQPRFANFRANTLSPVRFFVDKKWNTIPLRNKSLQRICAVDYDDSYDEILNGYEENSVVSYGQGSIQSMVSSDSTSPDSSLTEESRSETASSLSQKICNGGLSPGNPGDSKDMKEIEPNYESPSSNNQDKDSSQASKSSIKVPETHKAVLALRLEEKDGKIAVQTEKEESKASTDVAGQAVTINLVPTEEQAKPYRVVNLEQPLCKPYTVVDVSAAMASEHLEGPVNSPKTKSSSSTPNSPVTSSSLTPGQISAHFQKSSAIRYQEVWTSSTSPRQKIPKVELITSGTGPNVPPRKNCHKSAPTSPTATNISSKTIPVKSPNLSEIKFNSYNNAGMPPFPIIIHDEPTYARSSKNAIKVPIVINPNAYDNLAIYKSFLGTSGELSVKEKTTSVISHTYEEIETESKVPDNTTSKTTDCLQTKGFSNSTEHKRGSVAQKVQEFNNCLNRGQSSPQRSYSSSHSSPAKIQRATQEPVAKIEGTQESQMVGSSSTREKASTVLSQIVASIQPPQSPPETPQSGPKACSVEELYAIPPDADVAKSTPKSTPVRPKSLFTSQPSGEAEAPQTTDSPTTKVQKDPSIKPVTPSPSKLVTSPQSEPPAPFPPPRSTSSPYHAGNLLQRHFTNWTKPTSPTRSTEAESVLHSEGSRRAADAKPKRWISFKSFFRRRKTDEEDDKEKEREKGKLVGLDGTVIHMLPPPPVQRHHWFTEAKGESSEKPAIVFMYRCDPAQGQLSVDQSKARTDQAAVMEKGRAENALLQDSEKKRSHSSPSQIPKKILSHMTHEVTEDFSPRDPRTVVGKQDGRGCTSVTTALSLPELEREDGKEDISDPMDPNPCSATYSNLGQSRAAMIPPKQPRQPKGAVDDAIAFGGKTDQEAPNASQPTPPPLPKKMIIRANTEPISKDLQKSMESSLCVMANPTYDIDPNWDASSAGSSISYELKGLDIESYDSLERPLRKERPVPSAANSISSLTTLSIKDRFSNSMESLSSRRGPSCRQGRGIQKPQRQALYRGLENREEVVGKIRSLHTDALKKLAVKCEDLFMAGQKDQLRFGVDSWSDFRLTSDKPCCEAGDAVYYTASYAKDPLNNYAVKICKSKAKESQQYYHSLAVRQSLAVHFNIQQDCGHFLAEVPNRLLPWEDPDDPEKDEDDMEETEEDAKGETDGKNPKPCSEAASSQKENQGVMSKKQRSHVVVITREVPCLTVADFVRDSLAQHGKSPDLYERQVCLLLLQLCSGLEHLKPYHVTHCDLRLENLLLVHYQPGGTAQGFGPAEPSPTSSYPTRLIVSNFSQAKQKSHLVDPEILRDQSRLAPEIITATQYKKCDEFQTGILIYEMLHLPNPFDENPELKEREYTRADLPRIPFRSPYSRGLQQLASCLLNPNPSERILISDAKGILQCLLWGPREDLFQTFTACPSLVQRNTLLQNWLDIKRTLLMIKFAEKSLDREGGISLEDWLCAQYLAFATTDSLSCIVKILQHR
Chain of DDR1 (Q08345 19-913): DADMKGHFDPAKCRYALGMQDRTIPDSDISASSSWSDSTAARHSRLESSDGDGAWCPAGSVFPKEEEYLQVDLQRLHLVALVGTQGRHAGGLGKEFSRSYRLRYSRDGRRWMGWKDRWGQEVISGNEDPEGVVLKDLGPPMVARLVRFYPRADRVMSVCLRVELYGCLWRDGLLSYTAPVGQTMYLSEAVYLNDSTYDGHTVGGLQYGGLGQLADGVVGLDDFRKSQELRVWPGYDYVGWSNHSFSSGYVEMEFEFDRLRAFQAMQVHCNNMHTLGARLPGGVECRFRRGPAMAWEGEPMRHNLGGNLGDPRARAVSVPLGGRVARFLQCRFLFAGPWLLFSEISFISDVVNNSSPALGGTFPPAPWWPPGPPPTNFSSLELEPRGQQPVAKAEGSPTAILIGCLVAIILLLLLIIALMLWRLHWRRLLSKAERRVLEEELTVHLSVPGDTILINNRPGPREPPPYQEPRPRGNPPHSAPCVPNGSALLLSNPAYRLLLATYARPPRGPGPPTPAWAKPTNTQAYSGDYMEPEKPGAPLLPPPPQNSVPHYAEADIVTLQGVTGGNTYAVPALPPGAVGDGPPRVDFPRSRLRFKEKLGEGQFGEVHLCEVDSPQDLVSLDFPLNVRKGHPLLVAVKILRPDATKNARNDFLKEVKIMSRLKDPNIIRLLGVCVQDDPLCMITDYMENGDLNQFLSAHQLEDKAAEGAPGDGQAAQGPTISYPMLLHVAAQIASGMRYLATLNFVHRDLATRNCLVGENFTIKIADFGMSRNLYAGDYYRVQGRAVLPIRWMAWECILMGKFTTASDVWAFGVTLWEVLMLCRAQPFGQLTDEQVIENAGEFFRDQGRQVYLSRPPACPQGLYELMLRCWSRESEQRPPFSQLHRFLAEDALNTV
T1 sequence (P06239 whole entry): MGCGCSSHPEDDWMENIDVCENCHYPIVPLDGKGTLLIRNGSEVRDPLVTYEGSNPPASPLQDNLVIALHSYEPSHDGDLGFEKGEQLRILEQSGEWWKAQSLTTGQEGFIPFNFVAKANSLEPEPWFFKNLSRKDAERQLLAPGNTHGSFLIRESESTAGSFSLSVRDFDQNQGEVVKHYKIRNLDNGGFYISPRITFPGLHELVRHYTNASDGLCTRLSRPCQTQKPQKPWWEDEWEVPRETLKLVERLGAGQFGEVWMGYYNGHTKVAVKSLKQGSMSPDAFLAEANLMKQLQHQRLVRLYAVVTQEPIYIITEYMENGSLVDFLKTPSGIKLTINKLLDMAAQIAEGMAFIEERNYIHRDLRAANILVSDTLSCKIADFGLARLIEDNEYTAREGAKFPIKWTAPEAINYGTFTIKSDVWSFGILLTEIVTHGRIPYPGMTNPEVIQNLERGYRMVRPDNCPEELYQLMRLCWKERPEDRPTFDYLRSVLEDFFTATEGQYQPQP
T13 sequence (P42684 whole entry): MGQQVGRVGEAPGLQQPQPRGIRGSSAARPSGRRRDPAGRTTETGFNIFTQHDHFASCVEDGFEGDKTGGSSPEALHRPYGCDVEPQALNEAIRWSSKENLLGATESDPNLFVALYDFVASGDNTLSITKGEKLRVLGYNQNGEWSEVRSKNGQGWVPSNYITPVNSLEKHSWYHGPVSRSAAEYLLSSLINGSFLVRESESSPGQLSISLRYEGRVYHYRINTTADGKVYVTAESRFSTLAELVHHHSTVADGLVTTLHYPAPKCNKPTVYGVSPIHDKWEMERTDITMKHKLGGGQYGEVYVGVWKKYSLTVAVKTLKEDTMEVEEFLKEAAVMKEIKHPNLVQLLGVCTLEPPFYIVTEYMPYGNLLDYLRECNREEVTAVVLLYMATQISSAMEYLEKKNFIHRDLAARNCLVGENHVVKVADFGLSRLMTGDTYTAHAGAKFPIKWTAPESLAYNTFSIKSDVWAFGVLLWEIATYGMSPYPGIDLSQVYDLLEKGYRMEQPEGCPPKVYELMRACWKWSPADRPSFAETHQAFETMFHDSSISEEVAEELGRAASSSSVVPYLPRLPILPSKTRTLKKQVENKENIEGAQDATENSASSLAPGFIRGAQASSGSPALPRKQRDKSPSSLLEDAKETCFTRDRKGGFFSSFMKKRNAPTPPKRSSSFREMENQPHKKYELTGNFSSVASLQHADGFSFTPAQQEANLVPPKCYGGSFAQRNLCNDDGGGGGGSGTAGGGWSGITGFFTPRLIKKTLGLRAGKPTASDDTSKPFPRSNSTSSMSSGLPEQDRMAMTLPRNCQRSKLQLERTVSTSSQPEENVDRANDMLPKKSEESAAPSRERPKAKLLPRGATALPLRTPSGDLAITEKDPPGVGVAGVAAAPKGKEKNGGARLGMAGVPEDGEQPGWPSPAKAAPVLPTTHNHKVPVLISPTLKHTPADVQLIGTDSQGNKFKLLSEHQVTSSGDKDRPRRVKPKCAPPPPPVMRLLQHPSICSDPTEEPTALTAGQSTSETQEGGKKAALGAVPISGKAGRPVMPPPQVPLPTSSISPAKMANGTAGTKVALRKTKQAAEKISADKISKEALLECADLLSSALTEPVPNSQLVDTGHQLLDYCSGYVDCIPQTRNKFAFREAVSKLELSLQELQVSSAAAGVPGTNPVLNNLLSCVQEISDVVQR
T8 sequence (P51451 whole entry): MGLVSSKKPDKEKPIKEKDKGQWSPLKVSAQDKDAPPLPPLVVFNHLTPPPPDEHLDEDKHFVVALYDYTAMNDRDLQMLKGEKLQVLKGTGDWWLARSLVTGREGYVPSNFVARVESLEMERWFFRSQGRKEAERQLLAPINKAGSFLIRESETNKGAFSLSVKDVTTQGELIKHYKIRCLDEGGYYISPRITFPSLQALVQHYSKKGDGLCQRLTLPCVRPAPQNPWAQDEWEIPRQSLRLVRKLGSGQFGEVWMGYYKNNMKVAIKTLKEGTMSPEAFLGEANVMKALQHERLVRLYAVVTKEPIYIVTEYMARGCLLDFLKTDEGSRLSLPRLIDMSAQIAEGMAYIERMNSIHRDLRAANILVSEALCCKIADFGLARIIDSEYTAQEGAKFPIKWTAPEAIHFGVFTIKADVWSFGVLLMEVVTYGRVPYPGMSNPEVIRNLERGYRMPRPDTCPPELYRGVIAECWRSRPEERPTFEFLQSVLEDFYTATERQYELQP

For `CCc1cc(-c2[nH]nc(C)c2-c2ccc3c(c2)OCCO3)c(O)cc1O` [CCT018159], the “pActivity, LTK” value (LTK) is listed as 5.6, the remaining activity at 10 µM (LCK; LCK, 10uM, ATP 15 uM, Data 1, Data 2, read-out: % Enzyme Activity (relative to DMSO controls)) is listed as 61.4% and the inhibition at 10 µM (LCK; read-out: % inhibition at 10 uM: LCK, 10 μM, Fig 6C median ± standard deviation (n = 2)) is listed as 36 ± 4%. For the same compound, the “% inhibition at 10 uM: PEAK1” value (PEAK1; 10 μM, Fig 6C median ± standard deviation (n = 2)) was 83 ± 1%, the remaining activity at 10 µM (PEAK1; PEAK1, 10uM, ATP 30 uM, Data 1, Data 2, read-out: % Enzyme Activity (relative to DMSO controls)) was 16.4% and the inhibition at 10 µM (PEAK1; read-out: % inhibition at 10 uM: PEAK1, 10 μM, Fig 6C median ± standard deviation (n = 2)) was > 70%. The remaining activity at 10 µM (PASK; PASK, 10uM, ATP 50 uM, Data 1, Data 2, read-out: % Enzyme Activity (relative to DMSO controls)) was 101%, the inhibition at 10 µM (PASK; read-out: % inhibition at 10 uM: PASK, 10 μM, Fig 6C median ± standard deviation (n = 2)) was 0% and the remaining activity at 10 µM (TRKA; TRKA, 10uM, ATP 100 uM, Data 1, Data 2, read-out: % Enzyme Activity (relative to DMSO controls)) was 34.6%. The inhibition at 10 µM (TRKA; read-out: % inhibition at 10 uM: TRKA, 10 μM, Fig 6C median ± standard deviation (n = 2)) was 66 ± 1%, the “pActivity, PIM1” value (PIM1) was 5.8 and the remaining activity at 10 µM (LYN B; LYN B, 10uM, ATP 20 uM, Data 1, Data 2, read-out: % Enzyme Activity (relative to DMSO controls)) was 100%. The inhibition at 10 µM (LYN B; read-out: % inhibition at 10 uM: LYN B, 10 μM, Fig 6C median ± standard deviation (n = 2)) was -1 ± 1%, the remaining activity at 10 µM (c-Src; c-Src, 10uM, ATP 15 uM, Data 1, Data 2, read-out: % Enzyme Activity (relative to DMSO controls)) was 86.2% and the inhibition at 10 µM (c-Src; read-out: % inhibition at 10 uM: SRC, 10 μM, Fig 6C median ± standard deviation (n = 2)) was 14 ± 1%. The remaining activity at 10 µM (PDK4/PDKH4; PDK4/PDKH4, 10uM, ATP 30 uM, Data 1, Data 2, read-out: % Enzyme Activity (relative to DMSO controls)) was 66.3%, the inhibition at 10 µM (PDK4/PDKH4; read-out: % inhibition at 10 uM: PDK4, 10 μM, Fig 6C median ± standard deviation (n = 2)) was 33 ± 1% and the remaining activity at 10 µM (BLK; BLK, 10uM, ATP 10 uM, Data 1, Data 2, read-out: % Enzyme Activity (relative to DMSO controls)) was 15.3%. The inhibition at 10 µM (BLK; read-out: % inhibition at 10 uM: BLK, 10 μM, Fig 6C median ± standard deviation (n = 2)) was 85 ± 1%, the remaining activity at 10 µM (PDK2/PDHK2; PDK2/PDHK2, 10uM, ATP 15 uM, Data 1, Data 2, read-out: % Enzyme Activity (relative to DMSO controls)) was 42.8% and the inhibition at 10 µM (PDK2/PDHK2; read-out: % inhibition at 10 uM: PDK2, 10 μM, Fig 6C median ± standard deviation (n = 2)) was 50 ± 10%. For the same compound, the “pActivity, MET” value (MET) was 5.6, the remaining activity at 10 µM (YES/YES1; YES/YES1, 10uM, ATP 50 uM, Data 1, Data 2, read-out: % Enzyme Activity (relative to DMSO controls)) was 92% and the inhibition at 10 µM (YES/YES1; read-out: % inhibition at 10 uM: YES, 10 μM, Fig 6C median ± standard deviation (n = 2)) was 9 ± 1%. The remaining activity at 10 µM (FGR; FGR, 10uM, ATP 50 uM, Data 1, Data 2, read-out: % Enzyme Activity (relative to DMSO controls)) was 26.1%, the inhibition at 10 µM (FGR; read-out: % inhibition at 10 uM: FGR, 10 μM, Fig 6C median ± standard deviation (n = 2)) was 71 ± 4% and the remaining activity at 10 µM (ABL1; ABL1, 10uM, ATP 40 uM, Data 1, Data 2, read-out: % Enzyme Activity (relative to DMSO controls)) was 80%. For the same compound, the inhibition at 10 µM (ABL1; read-out: % inhibition at 10 uM: ABL1, 10 μM, Fig 6C median ± standard deviation (n = 2)) was 19 ± 2%, the “pActivity, HSP90AB1” value (HSP90AB1) was 6.55 and the remaining activity at 10 µM (FYN; FYN, 10uM, ATP 30 uM, Data 1, Data 2, read-out: % Enzyme Activity (relative to DMSO controls)) was 31.4%. The inhibition at 10 µM (FYN; read-out: % inhibition at 10 uM: FYN, 10 μM, Fig 6C median ± standard deviation (n = 2)) was 69%, the remaining activity at 10 µM (ABL2/ARG; ABL2/ARG, 10uM, ATP 30 uM, Data 1, Data 2, read-out: % Enzyme Activity (relative to DMSO controls)) was 63.6% and the inhibition at 10 µM (ABL2/ARG; read-out: % inhibition at 10 uM: ABL2, 10 μM, Fig 6C median ± standard deviation (n = 2)) was 32 ± 7%. For the same compound, the remaining activity at 10 µM (DDR1; DDR1, 10uM, ATP 100 uM, Data 1, Data 2, read-out: % Enzyme Activity (relative to DMSO controls)) was 20.1%, the inhibition at 10 µM (DDR1; read-out: % inhibition at 10 uM: DDR1, 10 μM, Fig 6C median ± standard deviation (n = 2)) was 81% and the remaining activity at 10 µM (TRKC; TRKC, 10uM, ATP 100 uM, Data 1, Data 2, read-out: % Enzyme Activity (relative to DMSO controls)) was 96.1%. For the same compound, the inhibition at 10 µM (TRKC; read-out: % inhibition at 10 uM: TRKC, 10 μM, Fig 6C median ± standard deviation (n = 2)) was 5 ± 1%.
